Experimental data taken from ChEMBL document CHEMBL1806395, “Recognition of drug degradation products by target proteins: isotetracycline binding to Tet repressor” (J Med Chem, 2011).

Key:
[1] = Binding affinity to recombinant TetR(D) expressed in Escherichia coli RB791 by SPR analysis
[2] = Binding affinity to recombinant TetR(D) expressed in Escherichia coli RB791 by fuorescence assay

CN(C)[C@@H]1C(O)=C(C(N)=O)C(=O)[C@@]2(O)C(O)=C[C@@H]([C@]3(C)OC(=O)c4c(O)ccc(Cl)c43)C[C@@H]12
Ka [1]: 0.8 µM⁻¹

CN(C)[C@@H]1C(O)=C(C(N)=O)C(=O)[C@@]2(O)C(O)=C3C(=O)c4c(O)ccc(Cl)c4[C@@](C)(O)[C@H]3C[C@@H]12
Ka [1]: 2.36 µM⁻¹ | Ka [2]: 2.3 µM⁻¹
